Measurements from US11427595B2, “Compositions and methods for inhibiting viral infection” (Trustees of Boston University, priority 2018, dated 2022).

How the values were obtained:
Huh7.5.1 cells [1] = experiment: MTS cell viability assay; type: cell-based, human; settings: 3 h treatment, 72 h incubation
From the text: In this comparison, niclosamide was used as a positive control, which is known as HCV inhibitor (unclear mechanisms). Data from CellTiter-Glo assay was obtained from separate experiments conducted on a different date.
MTS (3-(4,5-dimethylthiazol-2-yl)-5-(3-carboxymethoxyphenyl)-2-(4-sulfophenyl)-2H-tetrazolium)) assay is a colorimetric assay used to determine the mitochondrial metabolic rate by quantifying the reduced formazan product of MTS in cells to reflect viable cells. To determine the CC50 of each compound, Huh7.5.1 cells were treated with compounds or DMSO at indicated doses for 3 h in 96-well plates. After removal of compounds, cells were further incubated for 72 h prior to conducting the viability assay. The MTS assay in this study is accordance with a protocol provided by manufacturer (Promega, Madison, Wis. USA). One-fifth volume of MTS reagent was added into the culture supernatant at indicated time points. Plates were incubated at 37° C. for 3 hours with 5% CO2 followed by measuring the absorbance at 490 nanometers (nm) with an ELISA reader (SpectraMax Plus 385, Molecular Devices, USA). Percentages of toxicity were calculated using the formulas: 100-percentage of vial cells relative to that from the dimethyl sulfoxide (DMSO) treated group (100%) (n=3) (FIG. 68-FIG. 71).

JFH-1 HCVcc-Luc = experiment: microbe, parasite or virus in culture; type: cell-based, Hepatitis C virus; settings: for EC50: Hepatitis C virus, Huh-7.5.1, read-out: EC50, inhibition of HCV infection; for inhibition of HCV infection (in words): Huh7.5.1 cells, comparisons are to aglaroxin C (6)
[2] = Cytotoxicity, CellTiter-Glo Cell Viability Luminescent Assay; type: cell-based, human; settings: human; Huh7.5.1 cells, 3 h treatment, viability after 72 h; concentration giving 50% cell death
Procedure: (§1) To determine the […] of each compound, Huh7.5.1 cells were treated with compounds or DMSO at indicated doses for 3 h in 96-well plates. After removal of compounds, cells were further incubated for 72 h prior to the viability assay. The numbers of viable cells in culture were determined using the CellTiter-Glo Cell Viability Luminescent Assay kit according to the manufacturer's instruction (Promega). Percentages of toxicity were calculated using the formulas: 100-percentage of vial cells relative to that from the dimethyl sulfoxide (DMSO) treated group (100%) (n=3) (FIG. 20-FIG. 57).

Huh7.5.1 cells [3] = experiment: as above; type: cell-based, human; settings: Huh7.5.1 cells; for cytotoxicity (in words): comparisons are to aglaroxin C (6)
Procedure: as §1

[4] = system: cap-dependent Firefly luciferase (FLuc) translation; experiment: In vitro translation of bicistronic FF/HCV/Ren mRNA in Krebs-2 extracts, cap-dependent; type: biochemical; settings: 1 μM, relative to DMSO
From the text: In this system, Firefly luciferase (FLuc) translation is cap-dependent whereas Renilla luciferase (RLuc) expression HCV-IRES dependent. […] Results are presented relative to values obtained in the presence of DMSO ad expressed as mean±error of two biological replicates.
In this system, translation of the Firefly luciferase (FLuc) translation is cap-dependent whereas Renilla luciferase (RLuc) translation is dependent upon the HCV internal ribosome entry site (IRES) FIG. 11A.
In vitro transcriptions and translations were performed as described previously. Plasmid encoding the bicistronic FF/HCV/Ren open reading frame was linearized with BamHI and m^7Gppp-capped mRNA was produced by in vitro transcription reactions using SP6 RNA polymerase. In vitro translation reactions were performed with S10 extracts prepared from Kreb-2 cells and programmed with 4 ng/uL of in vitro transcribed mRNA. Firefly (FF) and Renilla (Ren) luciferase activities were measured on a Berthold Lumat LB9507 Luminometer and values normalized against vehicle control, which was set at 1.

translation = settings: previous studies; cited from earlier work

| SMILES | inhibition of HCV infection (in words) (JFH-1 HCVcc-Luc) | cytotoxicity (in words) (Huh7.5.1 cells [3]) | other results |
| --- | --- | --- | --- |
| COc1ccc(-c2nc3c(c(=O)[nH]2)[C@@H](c2ccccc2)[C@]2(c4ccc(OC)cc4)Oc4cc(OC)cc(OC)c4[C@]32O)cc1 (racemic) [12k, (5R,5aR,10bS)-10b-Hydroxy-8,10-dimethoxy-2,5a-bis(4-methoxyphenyl)-5-phenyl-3,5,5a,10b-tetrahydro-4H-benzofuro[2′,3′:4,5]cyclopenta[1,2-d]pyrimidin-4-one] |  |  | toxicity curve in MTS assay compared with CellTiter-Glo assay (Huh7.5.1 cells [1]): nearly identical toxicity curves |
| COc1ccc([C@@]23Oc4cc(OC)cc(OC)c4[C@]2(O)c2nc(-c4ccc(C(F)(F)F)cc4)[nH]c(=O)c2[C@H]3c2ccccc2)cc1 (racemic) [12o, (5R,5aR,10bS)-10b-Hydroxy-8,10-dimethoxy-5a-(4-methoxyphenyl)-5-phenyl-2-(4-(trifluoromethyl)phenyl)-3,5,5a,10b-tetrahydro-4H-benzofuro[2′,3′:4,5]cyclopenta[1,2-d]pyrimidin-4-one] |  |  | EC50 (JFH-1 HCVcc-Luc): 0.24 µM; toxicity curve in MTS assay compared with CellTiter-Glo assay (Huh7.5.1 cells [1]): nearly identical toxicity curves; CC50 [2]: 10 µM; maximum cytotoxicity plateau, cell death (Huh7.5.1 cells [3]; dose-response up to 200 μM): ~100% |
| COc1ccc([C@@]23Oc4cc(OC)cc(OC)c4[C@]2(O)c2nc(-c4ccccc4)[nH]c(=O)c2[C@H]3c2ccccc2)cc1 [12a, (5R,5aR,10bS)-10b-Hydroxy-8,10-dimethoxy-5a-(4-methoxyphenyl)-2,5-diphenyl-3,5,5a,10b-tetrahydro-4H-benzofuro[2′,3′:4,5]cyclopenta[1,2-d]pyrimidin-4-one] | promising increase of inhibition | plateauing of cytotoxicity | EC50 (JFH-1 HCVcc-Luc): 0.42 µM; CC50 [2]: 8.1 µM |
| COc1ccc([C@@]23Oc4cc(OC)cc(OC)c4[C@]2(O)c2nc(-c4ccccn4)[nH]c(=O)c2[C@H]3c2ccccc2)cc1 [12ab, (5R,5aR,10bS)-10b-Hydroxy-8,10-dimethoxy-5a-(4-methoxyphenyl)-5-phenyl-2-(pyridin-2-yl)-3,5,5a,10b-tetrahydro-4H-benzofuro[2′,3′:4,5]cyclopenta[1,2-d]pyrimidin-4-one] | slightly increased inhibition |  |  |
| COc1ccc([C@@]23Oc4cc(OC)cc(OC)c4[C@]2(O)c2nc4n(c(=O)c2[C@H]3c2ccccc2)CCCC4)cc1 [12ad, (5aR,6R,13bS)-13b-Hydroxy-1,3-dimethoxy-5a-(4-methoxyphenyl)-6-phenyl-6,9,10,11,12,13b-hexahydrobenzofuro[2′,3′:4,5]cyclopenta[1,2-d]pyrido[1,2-a]pyrimidin-7(5aH)-one] | moderate antiviral activity |  |  |
| COc1ccc([C@@]23Oc4cc(OC)cc(OC)c4[C@]2(O)c2nc(-c4ccccc4)n(C)c(=O)c2[C@H]3c2ccccc2)cc1 [12ae, (5R,5aR,10bS)-10b-Hydroxy-8,10-dimethoxy-5a-(4-methoxyphenyl)-3-methyl-2,5-diphenyl-3,5,5a,10b-tetrahydro-4H-benzofuro[2′,3′:4,5]cyclopenta[1,2-d]pyrimidin-4-one] |  | plateauing of cytotoxicity | EC50 (JFH-1 HCVcc-Luc): 0.2 µM; CC50 [2]: 7.3 µM |
| COc1ccc([C@@]23Oc4cc(OC)cc(OC)c4[C@]2(O)c2nc(Nc4ccccc4)n(-c4ccccc4)c(=O)c2[C@H]3c2ccccc2)cc1 [12af, (5R,5aR,10bS)-10b-Hydroxy-8,10-dimethoxy-5a-(4-methoxyphenyl)-3,5-diphenyl-2-(phenylamino)-3,5,5a,10b-tetrahydro-4H-benzofuro[2′,3′:4,5]cyclopenta[1,2-d]pyrimidin-4-one] | moderate antiviral activity |  |  |
| COc1ccc([C@@]23Oc4cc(OC)cc(OC)c4[C@]2(O)c2nc(-c4ccccc4)[nH]c(=O)c2[C@@H]3c2ccccc2)cc1 [12ah, (5S,5aR,10bS)-10b-Hydroxy-8,10-dimethoxy-5a-(4-methoxyphenyl)-2,5-diphenyl-3,5,5a,10b-tetrahydro-4H-benzofuro[2′,3′:4,5]cyclopenta[1,2-d]pyrimidin-4-one] | inactive | no cytotoxicity |  |
| COc1ccc([C@@]23Oc4cc(OC)cc(OC)c4[C@]2(OC)c2nc(-c4ccccc4)n(C)c(=O)c2[C@H]3c2ccccc2)cc1 [12ai, (5R,5aR,10bS)-8,10,10b-Trimethoxy-5a-(4-methoxyphenyl)-3-methyl-2,5-diphenyl-3,5,5a,10b-tetrahydro-4H-benzofuro[2′,3′:4,5]cyclopenta[1,2-d]pyrimidin-4-one] |  |  | EC50 (JFH-1 HCVcc-Luc): 9.2 µM |
| COc1ccc([C@@]23Oc4cc(OC)cc(OC)c4[C@]2(O)c2nc(-c4ccccc4)nc(OC)c2[C@H]3c2ccccc2)cc1 [12aj, (5R,5aR,10bS)-4,8,10-Trimethoxy-5a-(4-methoxyphenyl)-2,5-diphenyl-5,5a-dihydro-10bH-benzofuro[2′,3′:4,5]cyclopenta[1,2-d]pyrimidin-10b-ol] | inactive | non-toxic |  |
| COc1ccc([C@@]23Oc4cc(OC)cc(OC)c4[C@]2(O)c2nc(C4CCCCC4)[nH]c(=O)c2[C@H]3c2ccccc2)cc1 [12e, (5R,5aR,10bS)-2-Cyclohexyl-10b-hydroxy-8,10-dimethoxy-5a-(4-methoxyphenyl)-5-phenyl-3,5,5a,10b-tetrahydro-4H-benzofuro[2′,3′:4,5]cyclopenta[1,2-d]pyrimidin-4-one] |  | plateauing of cytotoxicity | EC50 (JFH-1 HCVcc-Luc): 2.5 µM |
| COc1ccc([C@@]23Oc4cc(OC)cc(OC)c4[C@]2(O)c2nc(C4CC4)[nH]c(=O)c2[C@H]3c2ccccc2)cc1 [12h, (5R,5aR,10bS)-2-Cyclopropyl-10b-hydroxy-8,10-dimethoxy-5a-(4-methoxyphenyl)-5-phenyl-3,5,5a,10b-tetrahydro-4H-benzofuro[2′,3′:4,5]cyclopenta[1,2-d]pyrimidin-4-one] | increased inhibition |  |  |
| COc1ccc([C@@]23Oc4cc(OC)cc(OC)c4[C@]2(O)c2nc(N4CCOCC4)[nH]c(=O)c2[C@H]3c2ccccc2)cc1 [12j, (5R,5aR,10bS)-10b-Hydroxy-8,10-dimethoxy-5a-(4-methoxyphenyl)-2-morpholino-5-phenyl-3,5,5a,10b-tetrahydro-4H-benzofuro[2′,3′:4,5]cyclopenta[1,2-d]pyrimidin-4-one] | moderate antiviral activity |  |  |
| COc1ccc([C@@]23Oc4cc(OC)cc(OC)c4[C@]2(O)c2nc(-c4cnccn4)[nH]c(=O)c2[C@H]3c2ccccc2)cc1 [12y, (5R,5aR,10bS)-10b-Hydroxy-8,10-dimethoxy-5a-(4-methoxyphenyl)-5-phenyl-2-(pyrazin-2-yl)-3,5,5a,10b-tetrahydro-4H-benzofuro[2′,3′:4,5]cyclopenta[1,2-d]pyrimidin-4-one] | slightly increased inhibition |  |  |
| COc1ccc([C@]23Oc4cc(OC)cc(OC)c4[C@@]2(O)c2nc(-c4ccc(C)cc4)[nH]c(=O)c2[C@@H]3c2ccccc2)cc1 [(−)-12l] | inactive | non-toxic |  |
| COc1ccc([C@]23Oc4cc(OC)cc(OC)c4[C@@]2(O)c2nc(-c4cccc(OC)c4)[nH]c(=O)c2[C@@H]3c2ccccc2)cc1 [(−)-12s] | inactive | non-toxic |  |
| CONC(=O)[C@H]1[C@@H](O)[C@@]2(O)c3c(OC)cc(OC)cc3O[C@@]2(c2ccc(OC)cc2)[C@@H]1c1ccccc1 [CR-1-31-B, reference compound] |  |  | translation inhibition of firefly luciferase (cap-dependent) [4]: strong inhibition |
| COC(=O)[C@H]1[C@@H](O)[C@@]2(O)c3c(OC)cc(O[C@@H]4O[C@@H]([C@H](O)CO)CO[C@H]4OC)cc3O[C@@]2(c2ccc(OC)cc2)[C@@H]1c1ccccc1 [silvestrol] |  |  | translation inhibition (in words) (translation): excellent translation inhibitor |
